Source: ChEMBL document CHEMBL1201862, “PubChem BioAssay data set” (2004)
Activity calls are given as the source filed them.

What was measured:
[1] = target: T1, Carboxy-terminal domain RNA polymerase II polypeptide A small phosphatase 1 (Homo sapiens, UniProt Q9GZU7); assay: CTDSP1 inhibitors, concentration-response, biochemical, absorbance readout, ultra-high-throughput screen actives (AID 540297); type: functional
T1 sequence (Q9GZU7 whole entry): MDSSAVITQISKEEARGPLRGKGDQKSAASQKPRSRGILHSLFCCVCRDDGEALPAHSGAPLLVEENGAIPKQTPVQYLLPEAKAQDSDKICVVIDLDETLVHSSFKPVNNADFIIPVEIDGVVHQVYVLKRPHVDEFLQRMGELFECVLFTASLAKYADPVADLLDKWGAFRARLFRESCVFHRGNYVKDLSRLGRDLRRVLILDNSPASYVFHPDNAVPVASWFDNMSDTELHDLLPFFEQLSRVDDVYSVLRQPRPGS

[2] = target: Induced myeloid leukemia cell differentiation protein Mcl-1 (Homo sapiens, UniProt Q07820); type: functional
Cytochrome P450 1A2 = target: T2, Cytochrome P450 1A2 (Homo sapiens, UniProt P05177);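 note: PubChem cytochrome P450 panel assay, CYP1A2 panel member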
T2 sequence (P05177 whole entry): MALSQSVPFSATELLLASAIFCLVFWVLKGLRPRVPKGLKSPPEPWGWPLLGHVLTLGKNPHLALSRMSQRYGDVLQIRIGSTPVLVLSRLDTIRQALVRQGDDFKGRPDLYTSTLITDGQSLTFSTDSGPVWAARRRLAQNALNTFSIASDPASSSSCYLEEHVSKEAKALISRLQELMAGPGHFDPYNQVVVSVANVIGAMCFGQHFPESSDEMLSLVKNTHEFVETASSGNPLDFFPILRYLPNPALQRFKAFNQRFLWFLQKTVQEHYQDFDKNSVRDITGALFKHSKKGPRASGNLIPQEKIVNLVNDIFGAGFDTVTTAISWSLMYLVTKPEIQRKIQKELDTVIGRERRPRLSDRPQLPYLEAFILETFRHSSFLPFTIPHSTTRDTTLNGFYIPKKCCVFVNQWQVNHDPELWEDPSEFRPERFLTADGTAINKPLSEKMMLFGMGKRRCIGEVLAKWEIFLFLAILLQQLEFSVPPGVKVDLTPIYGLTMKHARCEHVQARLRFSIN

Cytochrome P450 3A4 = Cytochrome P450 3A4 (Homo sapiens, UniProt P08684);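 note: CYP3A4 tested as one member of a cytochrome P450 panel screen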
Sequence of Cytochrome P450 3A4 (P08684 whole entry): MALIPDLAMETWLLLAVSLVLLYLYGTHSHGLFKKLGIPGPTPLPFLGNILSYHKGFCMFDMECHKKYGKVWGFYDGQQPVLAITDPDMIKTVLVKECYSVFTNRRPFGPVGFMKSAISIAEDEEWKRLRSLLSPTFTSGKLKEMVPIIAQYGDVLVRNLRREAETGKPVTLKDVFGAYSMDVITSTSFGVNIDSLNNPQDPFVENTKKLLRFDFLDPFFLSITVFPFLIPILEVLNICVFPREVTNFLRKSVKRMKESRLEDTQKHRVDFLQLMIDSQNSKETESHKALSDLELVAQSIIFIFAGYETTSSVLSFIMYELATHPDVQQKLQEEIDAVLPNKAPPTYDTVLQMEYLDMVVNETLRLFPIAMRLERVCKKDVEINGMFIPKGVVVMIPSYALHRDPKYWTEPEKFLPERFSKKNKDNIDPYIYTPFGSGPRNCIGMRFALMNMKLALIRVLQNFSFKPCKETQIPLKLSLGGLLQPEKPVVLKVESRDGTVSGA

[3] = target: T3, High affinity choline transporter 1 (Homo sapiens, UniProt Q9GZV3); assay: human choline transporter blockers, potency – cell-based, 5-point CRC, membrane potential dye, dose response (AID 504840); type: functional
T3 sequence (Q9GZV3 whole entry): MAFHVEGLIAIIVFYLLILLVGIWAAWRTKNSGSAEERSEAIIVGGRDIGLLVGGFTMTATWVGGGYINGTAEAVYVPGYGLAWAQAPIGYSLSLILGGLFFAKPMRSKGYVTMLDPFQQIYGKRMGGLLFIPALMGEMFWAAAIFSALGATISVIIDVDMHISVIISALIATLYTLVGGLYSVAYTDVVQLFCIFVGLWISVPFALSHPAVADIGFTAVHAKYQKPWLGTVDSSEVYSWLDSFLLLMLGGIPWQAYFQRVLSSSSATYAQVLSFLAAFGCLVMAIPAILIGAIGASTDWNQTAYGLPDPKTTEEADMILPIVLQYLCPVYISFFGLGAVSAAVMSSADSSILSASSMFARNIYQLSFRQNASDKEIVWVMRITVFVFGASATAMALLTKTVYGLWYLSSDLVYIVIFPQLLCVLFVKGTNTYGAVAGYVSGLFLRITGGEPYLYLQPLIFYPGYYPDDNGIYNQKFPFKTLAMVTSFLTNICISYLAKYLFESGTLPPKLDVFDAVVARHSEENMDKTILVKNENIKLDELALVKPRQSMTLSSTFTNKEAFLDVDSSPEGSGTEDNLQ

Streptococcus = assay: GAS UMAA2166 growth inhibition – luminescence, BacTiterGlo, counter-screen for streptokinase expression inhibitor project, dose response (AID 1915); type: functional, organism-based;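 note: potency for reduction of bacterial viability or growth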
[4] = test system: Streptococcus sp. 'group A'; assay: Streptococcus pyogenes SK(-)GAS viability under kanamycin – luminescence, BacTiterGlo, confirmation, counter-screen for streptokinase expression inhibitor project, dose response (AID 1900); type: functional, organism-based
[5] = target: T4, Short transient receptor potential channel 4 (Mus musculus, UniProt Q9QUQ5); assay: calcium entry via TRPC4 opening agents – cell-based, HEK293 TRPC4/mu-opioid, Fluo-4 calcium, dose response (AID 434937); type: functional
T4 sequence (Q9QUQ5 whole entry): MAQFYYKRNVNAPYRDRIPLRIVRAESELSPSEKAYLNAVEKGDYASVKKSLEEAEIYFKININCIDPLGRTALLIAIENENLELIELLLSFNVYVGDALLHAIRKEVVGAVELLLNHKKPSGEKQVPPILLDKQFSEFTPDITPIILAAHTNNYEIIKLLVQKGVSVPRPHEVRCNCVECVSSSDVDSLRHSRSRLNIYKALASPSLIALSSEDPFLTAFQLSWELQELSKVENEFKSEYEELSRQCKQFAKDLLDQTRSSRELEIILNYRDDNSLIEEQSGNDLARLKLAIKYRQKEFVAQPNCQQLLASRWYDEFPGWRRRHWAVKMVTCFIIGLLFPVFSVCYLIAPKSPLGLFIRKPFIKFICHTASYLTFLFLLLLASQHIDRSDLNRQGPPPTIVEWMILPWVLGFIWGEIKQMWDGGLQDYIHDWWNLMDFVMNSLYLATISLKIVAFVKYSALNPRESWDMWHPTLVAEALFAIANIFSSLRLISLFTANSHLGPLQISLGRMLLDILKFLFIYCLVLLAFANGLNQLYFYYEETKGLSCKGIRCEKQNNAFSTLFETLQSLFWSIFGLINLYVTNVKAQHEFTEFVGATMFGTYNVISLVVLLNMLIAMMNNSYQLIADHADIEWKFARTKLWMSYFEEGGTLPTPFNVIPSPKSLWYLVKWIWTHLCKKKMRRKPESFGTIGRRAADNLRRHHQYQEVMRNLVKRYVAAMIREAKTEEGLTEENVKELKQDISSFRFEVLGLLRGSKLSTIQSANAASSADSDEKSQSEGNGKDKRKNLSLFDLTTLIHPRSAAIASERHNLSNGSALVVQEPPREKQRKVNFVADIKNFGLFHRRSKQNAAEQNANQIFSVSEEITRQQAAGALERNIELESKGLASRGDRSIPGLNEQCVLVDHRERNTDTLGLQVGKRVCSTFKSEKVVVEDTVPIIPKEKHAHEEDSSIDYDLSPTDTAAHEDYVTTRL

Cytochrome P450 2D6 = Cytochrome P450 2D6 (Homo sapiens, UniProt P10635);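 note: CYP2D6 member of a cytochrome P450 panel assay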
Sequence of Cytochrome P450 2D6 (P10635 whole entry): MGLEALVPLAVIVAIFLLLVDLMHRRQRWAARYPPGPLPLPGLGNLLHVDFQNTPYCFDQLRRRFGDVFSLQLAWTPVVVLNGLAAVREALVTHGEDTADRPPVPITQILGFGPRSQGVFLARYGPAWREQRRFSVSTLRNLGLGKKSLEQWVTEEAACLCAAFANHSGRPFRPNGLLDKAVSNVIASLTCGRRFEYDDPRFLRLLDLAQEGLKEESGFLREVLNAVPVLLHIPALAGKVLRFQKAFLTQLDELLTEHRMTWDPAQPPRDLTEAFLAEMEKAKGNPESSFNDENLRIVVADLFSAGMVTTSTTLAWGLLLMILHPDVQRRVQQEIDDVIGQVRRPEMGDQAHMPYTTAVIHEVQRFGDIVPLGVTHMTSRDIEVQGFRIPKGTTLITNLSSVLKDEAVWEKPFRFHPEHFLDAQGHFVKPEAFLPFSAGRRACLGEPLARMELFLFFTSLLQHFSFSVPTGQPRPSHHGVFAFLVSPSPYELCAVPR

Cytochrome P450 2C19 = Cytochrome P450 2C19 (Homo sapiens, UniProt P33261); assay: Cytochrome panel assay with activity outcomes. Panel member name: p450-cyp2c19 Compounds with AC50 equal or less than 10 uM are considered active; type: functional; conditions: read-out: AC50
Cytochrome P450 2C9 = Cytochrome P450 2C9 (Homo sapiens, UniProt P11712)
[6] = viability loss in THP-1 monocytes – THP-1 cells, cytotoxicity control for Vif-APOBEC3G degradation inhibitor project, dose response (AID 1117359); type: functional; conditions: THP-1
[7] = OVCAR-3 cell viability loss – plate reader, dry powder samples, PAX8 inhibitor project, dose response (AID 743044); type: functional, cell-based
[8] = OVCAR8 cell viability loss – plate reader, dry powder samples, PAX8 project, dose response (AID 743197); type: functional, cell-based; conditions: OVCAR-8
Paired box protein Pax-8 = Paired box protein Pax-8 (Homo sapiens, UniProt Q06710); assay: PAX8 transcriptional activity inhibition in RMG-I – RMG-I cells, luciferase, cherry-pick, dose response (AID 687027); type: functional, cell-based;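 note: luciferase reporter driven by Pax8 target thyroperoxidase promoter measured by SteadyGlo luminescence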
Sequence of Paired box protein Pax-8 (Q06710 whole entry): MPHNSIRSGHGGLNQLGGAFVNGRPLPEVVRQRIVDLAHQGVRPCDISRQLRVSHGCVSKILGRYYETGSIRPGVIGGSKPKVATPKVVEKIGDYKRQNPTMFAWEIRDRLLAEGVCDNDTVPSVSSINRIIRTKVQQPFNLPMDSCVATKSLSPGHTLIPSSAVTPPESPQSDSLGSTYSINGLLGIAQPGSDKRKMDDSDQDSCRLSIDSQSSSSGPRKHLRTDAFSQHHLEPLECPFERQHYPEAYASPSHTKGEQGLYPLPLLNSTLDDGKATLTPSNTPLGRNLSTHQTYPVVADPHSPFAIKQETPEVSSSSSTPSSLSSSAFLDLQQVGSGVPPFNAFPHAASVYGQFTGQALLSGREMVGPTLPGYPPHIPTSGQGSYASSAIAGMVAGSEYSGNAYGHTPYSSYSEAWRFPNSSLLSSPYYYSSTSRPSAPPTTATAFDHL

[9] = blockers of bursicon-stimulated LGR2 cAMP reporter – cell-based, HEK293, CRE-luciferase reporter, cherry pick, set 2, dose response (AID 743343); type: functional;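 note: transfected cells were stimulated with diluted bursicon conditioned medium after compound addition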
[10] = target: Glyceraldehyde-3-phosphate dehydrogenase (Homo sapiens, UniProt P04406)
Sequence of Glyceraldehyde-3-phosphate dehydrogenase (P04406 whole entry): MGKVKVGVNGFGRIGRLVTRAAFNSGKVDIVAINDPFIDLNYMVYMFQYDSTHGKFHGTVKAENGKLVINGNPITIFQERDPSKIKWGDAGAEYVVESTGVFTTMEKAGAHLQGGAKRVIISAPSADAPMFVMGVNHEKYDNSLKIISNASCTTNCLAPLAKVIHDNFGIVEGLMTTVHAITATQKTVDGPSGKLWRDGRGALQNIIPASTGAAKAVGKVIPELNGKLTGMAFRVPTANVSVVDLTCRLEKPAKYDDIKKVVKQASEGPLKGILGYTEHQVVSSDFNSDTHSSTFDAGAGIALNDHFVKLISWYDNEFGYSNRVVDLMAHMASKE

[11] = target: T5, Alkaline phosphatase, tissue-nonspecific isozyme (Homo sapiens, UniProt P05186); assay: potency against alkaline phosphatase TNAP – biochemical, luminescent, dose response, SAR follow-up (AID 1056)
T5 sequence (P05186 whole entry): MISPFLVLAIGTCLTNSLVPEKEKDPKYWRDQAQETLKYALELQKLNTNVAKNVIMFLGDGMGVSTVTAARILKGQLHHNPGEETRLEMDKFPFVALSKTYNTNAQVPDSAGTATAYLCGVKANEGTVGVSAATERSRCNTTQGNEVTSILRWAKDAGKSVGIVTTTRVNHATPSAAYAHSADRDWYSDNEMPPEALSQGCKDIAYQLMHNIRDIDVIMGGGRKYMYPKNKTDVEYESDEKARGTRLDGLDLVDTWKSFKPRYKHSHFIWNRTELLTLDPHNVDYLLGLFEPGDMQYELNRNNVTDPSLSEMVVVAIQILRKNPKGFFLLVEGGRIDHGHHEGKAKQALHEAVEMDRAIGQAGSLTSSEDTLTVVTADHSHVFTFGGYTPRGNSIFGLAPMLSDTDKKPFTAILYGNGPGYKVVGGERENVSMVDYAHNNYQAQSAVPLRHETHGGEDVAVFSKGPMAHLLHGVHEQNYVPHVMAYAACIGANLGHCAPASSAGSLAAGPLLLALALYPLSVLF

[12] = target: T6, Heat shock factor protein 1 (Mus musculus, UniProt P38532); assay: decrease of HSF1-responsive luciferase luminescence – cell-based, NIH3T3, dose retest, confirmation (AID 2382); type: functional;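 note: NIH3T3 fibroblasts with HSF1-driven luciferase reporter stressed by proteasome inhibitor MG132; luminescence from HSF1-driven luciferase expression after 8 hours of MG132 stress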
T6 sequence (P38532 whole entry): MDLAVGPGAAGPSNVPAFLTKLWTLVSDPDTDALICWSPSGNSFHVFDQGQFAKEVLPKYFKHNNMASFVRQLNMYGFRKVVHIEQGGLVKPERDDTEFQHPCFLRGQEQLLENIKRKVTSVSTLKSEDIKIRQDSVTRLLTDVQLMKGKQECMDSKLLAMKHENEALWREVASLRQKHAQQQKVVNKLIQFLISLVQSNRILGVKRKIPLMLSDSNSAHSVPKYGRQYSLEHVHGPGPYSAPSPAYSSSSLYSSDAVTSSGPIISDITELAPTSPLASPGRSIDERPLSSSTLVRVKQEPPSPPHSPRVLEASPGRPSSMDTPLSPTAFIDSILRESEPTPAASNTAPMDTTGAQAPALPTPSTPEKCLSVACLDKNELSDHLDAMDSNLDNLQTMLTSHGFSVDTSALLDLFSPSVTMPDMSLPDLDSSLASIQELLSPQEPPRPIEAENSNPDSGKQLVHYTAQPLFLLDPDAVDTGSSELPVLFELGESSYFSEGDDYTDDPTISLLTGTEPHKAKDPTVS

[13] = target: T7, Voltage-gated N-type calcium channel alpha-1B subunit/Amyloid beta A4 precursor protein-binding family A member 1 (Homo sapiens, UniProt Q00975+Q02410); type: protein assay
T7 sequence (Q00975 whole entry): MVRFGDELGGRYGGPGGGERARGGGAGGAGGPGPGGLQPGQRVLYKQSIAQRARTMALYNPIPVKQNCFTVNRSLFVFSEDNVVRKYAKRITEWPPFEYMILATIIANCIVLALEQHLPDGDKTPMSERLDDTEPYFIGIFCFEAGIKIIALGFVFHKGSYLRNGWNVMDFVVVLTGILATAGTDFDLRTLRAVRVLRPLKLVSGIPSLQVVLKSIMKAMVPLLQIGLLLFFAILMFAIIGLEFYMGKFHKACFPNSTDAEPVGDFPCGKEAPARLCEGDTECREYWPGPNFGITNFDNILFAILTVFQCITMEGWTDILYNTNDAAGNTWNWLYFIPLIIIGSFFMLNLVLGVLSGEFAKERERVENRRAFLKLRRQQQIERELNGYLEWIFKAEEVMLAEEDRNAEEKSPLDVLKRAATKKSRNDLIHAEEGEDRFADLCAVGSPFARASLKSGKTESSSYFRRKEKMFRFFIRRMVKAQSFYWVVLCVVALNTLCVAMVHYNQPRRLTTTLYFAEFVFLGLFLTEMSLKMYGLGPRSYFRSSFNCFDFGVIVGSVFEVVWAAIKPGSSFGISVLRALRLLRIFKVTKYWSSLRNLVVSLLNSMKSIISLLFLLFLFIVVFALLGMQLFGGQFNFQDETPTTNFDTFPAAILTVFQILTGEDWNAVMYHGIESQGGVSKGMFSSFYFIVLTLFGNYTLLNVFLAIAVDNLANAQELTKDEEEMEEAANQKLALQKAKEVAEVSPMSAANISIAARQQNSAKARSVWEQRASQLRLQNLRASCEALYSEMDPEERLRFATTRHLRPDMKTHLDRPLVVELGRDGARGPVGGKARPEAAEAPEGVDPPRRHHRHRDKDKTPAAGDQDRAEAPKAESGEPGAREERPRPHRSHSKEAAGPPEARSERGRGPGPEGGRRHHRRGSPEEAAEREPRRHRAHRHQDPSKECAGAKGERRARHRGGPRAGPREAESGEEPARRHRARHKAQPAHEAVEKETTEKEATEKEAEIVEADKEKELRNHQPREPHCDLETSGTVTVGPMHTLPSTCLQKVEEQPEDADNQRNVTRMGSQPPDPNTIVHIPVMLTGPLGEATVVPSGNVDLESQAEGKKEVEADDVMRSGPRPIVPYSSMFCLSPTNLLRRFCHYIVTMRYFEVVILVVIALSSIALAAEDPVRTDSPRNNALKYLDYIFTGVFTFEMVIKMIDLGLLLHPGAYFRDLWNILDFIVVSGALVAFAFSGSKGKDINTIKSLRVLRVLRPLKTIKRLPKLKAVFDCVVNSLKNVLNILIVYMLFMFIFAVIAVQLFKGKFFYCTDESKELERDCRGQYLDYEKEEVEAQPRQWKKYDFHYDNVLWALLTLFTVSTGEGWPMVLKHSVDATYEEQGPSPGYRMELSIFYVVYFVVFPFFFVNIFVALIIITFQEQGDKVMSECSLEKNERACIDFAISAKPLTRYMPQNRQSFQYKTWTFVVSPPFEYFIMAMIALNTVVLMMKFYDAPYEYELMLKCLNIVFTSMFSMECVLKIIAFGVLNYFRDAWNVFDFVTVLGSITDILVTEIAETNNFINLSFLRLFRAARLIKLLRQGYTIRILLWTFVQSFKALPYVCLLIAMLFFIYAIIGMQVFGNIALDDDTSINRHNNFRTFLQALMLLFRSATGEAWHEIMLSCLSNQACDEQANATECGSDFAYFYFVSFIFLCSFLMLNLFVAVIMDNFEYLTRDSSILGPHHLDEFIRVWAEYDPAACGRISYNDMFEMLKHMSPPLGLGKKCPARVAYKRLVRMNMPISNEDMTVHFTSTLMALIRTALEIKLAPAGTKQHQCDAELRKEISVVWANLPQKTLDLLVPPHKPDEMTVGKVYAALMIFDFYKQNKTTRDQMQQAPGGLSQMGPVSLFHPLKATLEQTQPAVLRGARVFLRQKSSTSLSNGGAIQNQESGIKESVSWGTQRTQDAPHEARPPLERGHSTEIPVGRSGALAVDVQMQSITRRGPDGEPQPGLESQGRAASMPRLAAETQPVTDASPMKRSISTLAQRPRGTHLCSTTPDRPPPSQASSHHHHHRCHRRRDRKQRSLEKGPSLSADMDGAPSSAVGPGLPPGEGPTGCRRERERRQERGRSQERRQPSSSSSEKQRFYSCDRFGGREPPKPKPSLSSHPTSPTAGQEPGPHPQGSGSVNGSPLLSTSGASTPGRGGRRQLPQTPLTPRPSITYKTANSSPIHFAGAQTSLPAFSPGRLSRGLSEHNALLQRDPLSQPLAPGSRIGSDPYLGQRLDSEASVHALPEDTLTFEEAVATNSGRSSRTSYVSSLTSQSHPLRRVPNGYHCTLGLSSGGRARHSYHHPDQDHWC
T7 sequence (Q02410 whole entry): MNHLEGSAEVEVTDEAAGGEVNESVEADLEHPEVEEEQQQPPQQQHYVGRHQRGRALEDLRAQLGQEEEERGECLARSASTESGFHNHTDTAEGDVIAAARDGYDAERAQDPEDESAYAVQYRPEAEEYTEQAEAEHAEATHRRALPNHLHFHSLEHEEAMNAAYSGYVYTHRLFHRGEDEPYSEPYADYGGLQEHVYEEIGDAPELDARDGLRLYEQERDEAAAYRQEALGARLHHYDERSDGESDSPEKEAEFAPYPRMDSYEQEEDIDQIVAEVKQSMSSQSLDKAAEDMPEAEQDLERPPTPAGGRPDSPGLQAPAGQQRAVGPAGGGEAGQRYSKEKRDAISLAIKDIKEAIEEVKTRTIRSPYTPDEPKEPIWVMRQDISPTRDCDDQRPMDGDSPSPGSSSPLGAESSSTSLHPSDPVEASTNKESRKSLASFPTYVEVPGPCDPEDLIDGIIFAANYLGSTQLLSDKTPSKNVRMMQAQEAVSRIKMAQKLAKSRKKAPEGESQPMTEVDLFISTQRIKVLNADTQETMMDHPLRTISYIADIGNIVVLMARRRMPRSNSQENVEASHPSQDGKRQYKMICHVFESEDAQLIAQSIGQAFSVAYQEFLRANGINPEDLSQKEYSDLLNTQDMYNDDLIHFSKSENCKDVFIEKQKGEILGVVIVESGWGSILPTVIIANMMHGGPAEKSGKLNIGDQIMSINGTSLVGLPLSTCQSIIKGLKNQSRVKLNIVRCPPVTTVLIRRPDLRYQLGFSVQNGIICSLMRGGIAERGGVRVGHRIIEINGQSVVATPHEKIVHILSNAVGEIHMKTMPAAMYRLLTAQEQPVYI

[14] = target: T7, Voltage-gated N-type calcium channel alpha-1B subunit/Amyloid beta A4 precursor protein-binding family A member 1; type: protein assay; remark: listed apart in the source

For `Cc1ccc(NC(=O)CN2C(=O)N/C(=C/c3cc(C)n(-c4ccc(C(=O)O)cc4)c3C)C2=O)cc1`, the IC50 [1] was 7.93 µM (active) and the IC50 [2] was 4.55 µM (active).

For `Cc1ccccc1OCC(=O)Nc1ccc(N2CCN(C(=O)C(C)C)CC2)c(Cl)c1`, the AC50 (Cytochrome P450 1A2) was 15.8 µM (inconclusive) and the AC50 (Cytochrome P450 3A4) was “inconclusive”.

In the case of `Nc1cc(C(=O)OCC(=O)c2ccc(CC(=O)N3CCOCC3)s2)ccc1Cl`, the IC50 [1] was 5.84 µM (active).

In the case of `COc1ccccc1C(=O)NNC(=S)NC(=O)c1sc2ccccc2c1Cl`, the IC50 [3] was 14.5 µM (active), the EC50 (Streptococcus) was 0.878 µM (active) and the EC50 [4] was 0.072 µM (active). The EC50 [5] was 5.31 µM (active).

For `Cc1cccc(C(=O)N2CCC(c3nc(-c4ccc(S(=O)(=O)N5CCOCC5)cc4)no3)CC2)c1`, the AC50 (Cytochrome P450 3A4) was “inconclusive”, the AC50 (Cytochrome P450 2D6) was 0.00316 µM (inconclusive) and the AC50 (Cytochrome P450 2C19) was 15.8 µM (inconclusive). For the same compound, the AC50 (Cytochrome P450 2C9) was 39.8 µM (inconclusive).

With `CCCN=C1C(=O)C2=C(C(O)=C1C)N1CC3NC3[C@@]1(OC)C2COC(N)=O` (stereo partly drawn) the EC50 (Streptococcus) was 0.153 µM (active), the EC50 [4] was < 0.06 µM (active) and the CC50 [6] was 1.52 µM (active).

For `c1ccc(-c2noc(CSc3nnnn3C3CCCCC3)n2)cc1`, the AC50 (Cytochrome P450 3A4) was “inconclusive” and the AC50 (Cytochrome P450 2D6) was 17.8 µM (inconclusive).

In the case of `C[C@@H]1CN([C@H](C)CO)S(=O)(=O)c2ccc(-c3ccc(C#N)cc3)cc2O[C@@H]1CN(C)Cc1cccc(F)c1`, the AC50 [7] was 29.1 µM (active), the AC50 [8] was 25.8 µM (active) and the AC50 (Paired box protein Pax-8) was 3.4 µM (active).

With `CCCN1[C@H](C(=O)N2CCOCC2)[C@@H](CO)[C@@H]2Cn3c(ccc(/C=C/c4ccccc4)c3=O)[C@@H]21` the AC50 [8] was > 70 µM (inactive) and the AC50 (Paired box protein Pax-8) was 48.2 µM (active).

For `O=S1(=O)CCOC[C@H](CC2CCCCC2)N1Cc1ccccc1F`, the AC50 [9] was 53.7 µM (active).

For `Cn1c(SCC(=O)Nc2nncs2)nnc1C1CC1`, the IC50 [1] was 4.69 µM (active).

For `CCOc1cc(C)c(C)cc1S(=O)(=O)Nc1cccnc1`, the IC50 [10] was > 100 µM (not active) and the IC50 [11] was 1.7 µM (active).

In the case of `COc1ccc(NS(=O)(=O)c2cccc(C(=O)N/N=C/c3c(F)c(F)c(F)c(F)c3F)c2)cc1`, the IC50 [1] was 10.7 µM (active).

For `CCCC[C@@H]1CN=C(S)N1CCc1cccc2ccccc12`, the CC50 [6] was > 40 µM (active).

In the case of `O=S(=O)(Nc1cccnc1)c1ccc(Br)cc1OC(F)(F)F`, the IC50 [10] was > 100 µM (not active) and the IC50 [11] was 10.9 µM (active).

With `NNC(=O)c1ccc(N2CCc3ccccc32)c([N+](=O)[O-])c1` the EC50 [12] was > 195 µM (not active) and the CC50 [6] was > 40 µM (active).

With `CC(=O)NC1=NC(=O)/C(=C/c2cn(C(C)=O)nc2-c2ccccc2)S1` the IC50 [13] was > 56.8 µM (not active) and the IC50 [14] was > 50 µM (inactive).

In the case of `O=C1C2CCCCC2C(=O)N1c1nccs1` (stereo not drawn), the IC50 [10] was > 10 µM (inconclusive) and the IC50 [11] was > 10 µM (inactive).

In the case of `CCN(CC)S(=O)(=O)c1ccc(C(=O)NC2=C(C(=O)OC)SCC2)cc1`, the AC50 (Cytochrome P450 3A4) was “inconclusive”.
